In patent US20090068143A1, “ORALLY EFFECTIVE C[…]” (priority 2005, published 2009):
Marks after values point to notes of the source that are not given here.

Experiments:
CB2 = test: Real-time RT-PCR gene expression in CNS of MOG induced EAE: CB2; assay type: in vivo, mouse; conditions: 40 mg/kg p.o., day 31, over naive animals
Procedure: (§1) Total RNA is prepared using SV total RNA isolation system (Promega). The brains and spinal cords, which were removed on day 31 from five animals treated with vehicle (i.e. untreated) or 40 mg/kg p.o. of compound 18F (i.e. treated) in the MOG-induced EAE study, were homogenized in lysis buffer. The lysates were transferred to an RNA isolation column, treated with DNAse, washed and eluted according to kit instructions. RNA concentrations were determined using GeneQuant II (Pharmacia-Amersham). Complementary DNA (cDNA) was synthesized from total RNA using […] II reverse transcriptase (Life Technologies). […] Quantitative real-time RT-PCR included 1 μl of the cDNA, 300 nM of the appropriate forward and reverse primers (according to the gene monitored) and 7.5 μl of the reaction mix containing buffer, nucleotides, Taq polymerase and SYBER green (SYBER Green master mix, Applied Biosystems), in a total reaction volume of 15 μl. […] During each annealing step, the amount of the amplified product was measured by the fluorescence of the double strand DNA binding dye, SYBER Green. The cycle of threshold (CT), representing the PCR cycle at which an increase in fluorescence above a baseline signal can be first detected, was determined for each product. […] Results were expressed as fold increase of gene expression in treated or untreated animals above the naive animals. […]

RAW 264.7 macrophages = test: NO secretion of LPS activated RAW 264.7 macrophages (ELISA); assay type: cell-based; conditions: Mus musculus, RAW264.7, 24 hrs after LPS stimulation
Procedure: RAW 264.7 macrophages, a mouse cell line (ATCC # TIB 71), were grown in Dulbecco's modified Eagle's medium (DMEM) with 4 mM L-glutamine adjusted to contain 1.5 g/L sodium bicarbonate, 4.5 g/L glucose, and 10% heat inactivated fetal bovine serum. Cells were grown in tissue culture flasks and seeded at appropriate density into 6 wells tissue culture plates. Four million Raw cells in half a milliliter were stimulated with 1 μg/ml Lipopolysaccharide E. coli 055:B5 (DIFCO Laboratories). The mouse macrophages were pre-treated for one hour with controls or 10 μM of test compounds, and later on activated with LPS. RNA samples were extracted from the cells 3 hrs after activation and iNOS gene expression levels were analyzed by real-time RT-PCR as previously described. For western blot analysis, compounds were tested at 1, 5 and 10 μM and cells were harvested 24 hrs after LPS stimulation. Supernatant were collected and NO secretion was analyzed using ELISA. Cells were washed 3 times with cold PBS, scrapped and lyzed in 100 μl cell lysis buffer containing 20 mM HEPES, pH 7.6, 150 mM NaCl, 1.5 mM MgCl2, 0.2 mM EDTA, 1% Triton X-100, 10% glycerol, 1 mM DTT, 1 mM PMSF, 10 μg/ml aprotinin. 5 µg/ml leupeptin, 10 mM p-nitrophenyl phosphate, 100 mM β-glycerophosphate, 1 mM sodium fluoride, and 0.1 μM sodium orthovanadate. Cells were lyzed on ice for 10 minutes before further processing. […]

iNOS = iNOS gene expression in LPS activated RAW 264.7 macrophages (real-time RT-PCR); assay type: cell-based, mouse
Procedure: RAW 264.7 macrophages, a mouse cell line (ATCC # TIB 71), were grown in Dulbecco's modified Eagle's medium (DMEM) with 4 mM L-glutamine adjusted to contain 1.5 g/L sodium bicarbonate, 4.5 g/L glucose, and 10% heat inactivated fetal bovine serum. Cells were grown in tissue culture flasks and seeded at appropriate density into 6 wells tissue culture plates. Four million Raw cells in half a milliliter were stimulated with 1 μg/ml Lipopolysaccharide E. coli 055:B5 (DIFCO Laboratories). The mouse macrophages were pre-treated for one hour with controls or 10 μM of test compounds, and later on activated with LPS. RNA samples were extracted from the cells 3 hrs after activation and iNOS gene expression levels were analyzed by real-time RT-PCR as previously described. For western blot analysis, compounds were tested at 1, 5 and 10 μM and cells were harvested 24 hrs after LPS stimulation. Supernatant were collected and NO secretion was analyzed using ELISA. Cells were washed 3 times with cold PBS, scrapped and lyzed in 100 μl cell lysis buffer containing 20 mM HEPES, pH 7.6, 150 mM NaCl, 1.5 mM MgCl2, 0.2 mM EDTA, 1% Triton X-100, 10% glycerol, 1 mM DTT, 1 mM PMSF, 10 μg/ml aprotinin. 5 µg/ml leupeptin, 10 mM p-nitrophenyl phosphate, 100 mM β-glycerophosphate, 1 mM sodium fluoride, and 0.1 μM sodium orthovanadate. Cells were lyzed on ice for 10 minutes before further processing.
The results of this experiment are expressed as fold activation of iNOS over non-activated macrophages, after normalization to cyclophilin A expression. Compound 18A inhibits 63% of iNOS gene expression, and compounds 18B, 18E and 18F inhibit 55%, 25% and 100% respectively. […] This surprising observation strengthen the fact that compounds of the invention, though chemically related, have distinct and unexpected properties.

[1] = tested on: PLP induced remitting-relapsing EAE; test: PLP induced remitting-relapsing EAE
acute pain = conditions: pretreatment, administered orally; cited from earlier work
TNF-α = test: Real-time RT-PCR gene expression in CNS of MOG induced EAE: TNF-α; assay type: in vivo, mouse; conditions: 40 mg/kg p.o., day 31; over naive animals
Procedure: as §1

CCCCCCC(C)(C)c1cc(O)c([C@H]2CC(=O)C3CC2C3(C)C)c(OC(=O)/C=C/C(=O)O)c1 (single isomer, unassigned; (-)) [Compound 18F, (−)-4-{4-[1,1-Dimethylheptyl]-2-fumarate-6-hydroxy-phenyl}-6,6-dimethyl-bicyclo[3.1.1]heptan-2-one]
Fold gene expression CB2, Spinal Cord, Treated (CB2): 2 fold
Fold gene expression CB2, Brain, Treated (CB2; untreated −13): 1* fold
inhibition at 10 µM (RAW 264.7 macrophages): 61%
effect of CB1 or CB2 antagonists on iNOS inhibiting activity (iNOS; 5 μM of SR-141716 and SR-144528): only blocked by CB2 antagonists
inhibition of iNOS gene expression (iNOS; 10 μM, 1 h pre-treatment, 3 hrs after LPS activation): 100%
relapse postponed as compared to controls ([1]; 40 mg/kg p.o. daily for 25 days): 5 to 7 days
clinical score of the second peak ([1]; 40 mg/kg p.o. daily for 25 days from day 25, controls 0.7 and 0.8): 0.5
side effects ([1]; 40 mg/kg p.o. for 25 days): No side effects were observed
AUC of clinical score ([1]; 40 mg/kg p.o., day 35 to day 58, control 8.1): 2.1
reduction in AUC as compared to control ([1]; 40 mg/kg p.o., day 35 to day 58, p=0.0025): 74%
average reduction of clinical score ([1]; 40 mg/kg p.o., day 38 till end of study): 28%
efficacy against acute pain (acute pain): effective against acute pain
Fold gene expression TNF-α, Brain, Treated (TNF-α): 2.5 fold
Fold gene expression TNF-α, Spinal Cord, Treated (TNF-α): 15 fold
